According to patent US8138191B2, “Inhibitor compounds and cancer treatment methods” (Critical Outcome Technologies Inc., priority 2007, dated 2012):
Read-outs that look alike come from different tables or passages of the source. Values belong to the compound of their own block, whether it stands above or below them.

Assays:
[1] = test system: U87; experiment: IC50 human glioma/astrocytoma cell lines (alamar Blue), U87
[2] = test system: SNB-19; experiment: IC50 human glioma/astrocytoma cell lines (alamar Blue), SNB-19
[3] = test system: DMS153; experiment: Resistance testing over 5 generations, DMS153; type: cell-based, human; details: DMS153, 5 generations
Procedure: (§1) In order to evaluate the induction of resistance in vitro, compounds according to the invention were tested in head to head comparisons against conventional therapeutic agents Cisplatin® and Taxotere®. The compound designated COTI-4 (which is the subject of Applicant's co-pending U.S. provisional patent application entitled “Composition and Method for Treatment” filed Dec. 26, 2007) was also tested. The structure for COTI-4 is:
(§2) IC50 values were obtained using methods known to persons skilled in the art with two different human SCLC cell lines (DMS153 and SHP77) obtained from the National Cancer Institute. […] The procedure was repeated for a total of 5 generations. Emerging resistance was identified by increasing IC50 values in successive generations.

[4] = test system: SHP77; experiment: Resistance testing over 5 generations, SHP77; type: cell-based, human; details: SHP77, 5 generations
Procedure: as §1, §2

[5] = test system: SHP-77 human SCLC cell line tumor xenografts; experiment: Nude mouse model of human SCLC, SHP-77 xenografts; type: in vivo; details: for average number of tumors per injection site / mean tumor volume: IP on alternate days from Day 3, 31 days
Procedure: The nude mouse model of human SCLC was used to evaluate the in vivo efficacy of compounds of the present invention in comparison with several known chemotherapeutic agents. Nude mice were obtained form the National Cancer Institute and the SHP-77 human SCLC cell line was chosen for metastatic tumor xenografts. The control group consisted of 10 animals, each of which were administered bilateral thigh injections of a prescribed volume of tumor cells. There were 6 treatment groups, each containing 5 animals: COTI-2, COTI-4, COTI-219, Taxotere® (docetaxel), Cisplatin® (cis-diamminedichloroplatinum) and Tarceva® (erlotinib) The therapeutic agent was administered by intraperitoneal (IP) injection on alternate days beginning on Day 3 post tumor cell injection. Each animal in a treatment group was administered bilateral thigh injections with the same prescribed volume of tumor cells as the control animals. Treatment continued for 31 days, following which the animals were euthanized and tissues were collected for subsequent analysis.

[6] = target: T1, CYP2B6 (Homo sapiens, UniProt P20813); details: both, 15 min, pH 7.4
T1 sequence (P20813 1-491): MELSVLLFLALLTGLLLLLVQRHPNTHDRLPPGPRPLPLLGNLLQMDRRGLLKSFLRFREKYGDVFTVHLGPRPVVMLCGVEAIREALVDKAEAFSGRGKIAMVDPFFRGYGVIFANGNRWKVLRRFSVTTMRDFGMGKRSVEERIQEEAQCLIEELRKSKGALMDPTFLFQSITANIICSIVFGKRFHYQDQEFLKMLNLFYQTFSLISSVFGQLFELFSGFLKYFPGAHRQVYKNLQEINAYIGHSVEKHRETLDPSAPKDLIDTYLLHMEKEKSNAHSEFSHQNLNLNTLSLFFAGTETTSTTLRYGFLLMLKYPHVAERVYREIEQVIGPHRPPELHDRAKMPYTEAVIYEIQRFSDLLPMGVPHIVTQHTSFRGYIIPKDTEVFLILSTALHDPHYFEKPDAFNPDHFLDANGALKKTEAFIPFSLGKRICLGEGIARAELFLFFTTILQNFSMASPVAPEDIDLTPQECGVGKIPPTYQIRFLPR

[7] = target: T1, CYP2B6; experiment: biochemical
[8] = test system: SHP 77 cells; experiment: Proliferation with anti-cancer agents plus COTI-2, SHP 77; type: cell-based, human; details: SHP 77
[9] = test system: DMS114 cells; experiment: Proliferation with anti-cancer agents plus COTI-2, DMS114; type: cell-based, human; details: DMS114
[10] = test system: PI3K activity in SHP77 cells; experiment: PI3-K activity (PIP3 detection, Echelon kit), SHP77; type: cell-based, human; details: SHP77, 50 μM inhibitor + 250 nM COTI-2
Source text: As a negative control, an equivalent volume of DMSO was utilized. […] To measure PI3-K activity, a commercial kit was purchased from Echelon. Following the procedures recommended by the manufacturer, membrane lipids were extracted in several steps and the resulting PIP3 was immobilized to nitrocellulose and measured by its interaction with a PH-domain containing protein and HRP-conjugated antibody supplied with the kit. As an additional control in these experiments, the specific PI3-K inhibitor, LY294002 was used to inhibit PI3-K and thus stop PIP3 production.

[11] = test system: NCI/DTP 60 cell line panel; details: NOT including DMS114 and SHP-77; cited from earlier work
[12] = test system: U87 glioblastoma cells; experiment: Proliferation of U87 glioblastoma cells (alamarBlue), single agents and combinations with temsirolimus or rapamycin; type: cell-based; details: Homo sapiens; U87, single agent, triplicate experiments
Procedure: In vitro IC50 values were obtained for combinations of compounds of the present invention with temsirolimus or rapamycin in the treatment of U87 glioblastoma cells. Temsirolimus and rapamycin both inhibit proliferation of human U87 glioblastoma cells, as single agents (FIG. 14). […] Both inhibit proliferation of these cells with increasing concentration.
Temsirolimus was provided in liquid form from the London Regional Cancer Program (LRCP) Pharmacy. COTI-219 was prepared as a 50 mM stock in DMSO, then diluted to 10 mM in DMSO followed by serial dilution water for addition to medium overlaying cells. Cells were incubated with temsirolimus in combination with COTI-219 for 4 days (in wells of 96 well plates) followed by analysis of live cell density using the fluorescent vital stain alamarBlue.
All data points are means±SEM (n=6). Error bars are, in every case, smaller than the size of the symbol.
Rapamycin was prepared by crushing and extracting a tablet (supplied from the LRCP Pharmacy) with DMSO, followed by centrifugation to remove particulate matter. COTI-219 was prepared as a 50 mM stock in DMSO, then diluted to 10 mM in DMSO followed by serial dilution water for addition to medium overlaying cells. […]

[13] = test system: COLO-205; experiment: Tumor cell proliferation, single agents and combinations, COLO-205; type: cell-based, human; details: for IC50: Homo sapiens
Procedure: (§3) The 3 cell lines were treated as follows:
(§4) Day 1: Cells were plated in 96-well flat bottom plates (VWR, Mississauga, ON, Canada) and allowed to adhere overnight.
(§5) All treated and control cells were, therefore, exposed to a 1% DMSO concentration plus the desired concentration of COTI-2.
(§6) The CI, a numerical value calculated as described in equation A, also provides a quantitative measure of the extent of drug interaction. A CI of less than, equal to, and more than 1 indicates synergy, additivity, and antagonism, respectively. CI=(CAx/ICx,A)+(CB,x/ICx,B) Equation A: Where CA,x and CB,x, are the concentrations of drug A and drug B used in combination to achieve x % drug effect. ICx,A and ICx,B are the concentrations for single agents to achieve the same effect.

[14] = test system: HCT-15; experiment: Tumor cell proliferation, single agents and combinations, HCT-15; type: cell-based; details: Homo sapiens; HCT-15, Colon, KRAS - MUT; read-out: Mean IC50, single agent
Procedure: as §3, §4, §5, §6

[15] = test system: H292; experiment: CellTiter-Blue growth inhibition, single agents and combinations, H292; type: cell-based; details: Homo sapiens, NCI-H292; H292, NSCLC, EGFR - WT, 72 h; read-out: Mean IC50, single agent
Procedure: (§7) The stock concentration was further diluted to 1 mM and added to a drug plate. […] Following dilution, 2 μl of test agent was transferred to the corresponding wells of a cell-containing 96-well plate with 198 μl of growth media. Tarceva® (erlotinib) was supplied by LC Labs (Woburn, Mass.).
(§8) Viable cell numbers were quantified by the CellTiter-Blue® cell viability assay, which measures the conversion of the indicator dye (resazurin) to resorufin, an indicator of cell viability. Experiments were repeated at least twice with the same concentrations to determine growth inhibitory activity.
as §6

[16] = test system: H1975; experiment: CellTiter-Blue growth inhibition, single agents and combinations, H1975; type: cell-based; details: Homo sapiens, NCI-H1975; H1975, NSCLC, EGFR - MUT, 72 h; read-out: Mean IC50, single agent
Procedure: as §7, §8, §6

[17] = test system: SW620; experiment: Tumor cell proliferation, single agents and combinations, SW620; type: cell-based, human; details: for IC50: Homo sapiens
Procedure: as §3, §4, §5, §6

SMILES: O=NN(CCCl)C(=O)NCCCl [BCNU, 1,3-Bis(2-chloroethyl)-1-nitrosourea, reference compound]
IC50 ([1]; Homo sapiens, U-87 MG): 1520 nM
IC50 ([2]; Homo sapiens, SNB-19): 2250 nM

SMILES: N.N.[Cl][Pt][Cl] [Cisplatin, cis-diamminedichloroplatinum, reference compound]
IC50 ([1]; U87, 4-7 days): 490 nM
IC50 ([2]; SNB-19, 4-7 days): 870 nM
emerging resistance: ratio of IC50 to IC50 of parental generation [3]: significant increases in IC50
emerging resistance: ratio of IC50 to IC50 of parental generation [4]: significant increases in IC50
average number of tumors per injection site [5]: 0.48
mean tumor volume [5]: 132+/−26 mm^3

nH [6]: 2.7
IC50 [7]: 640 nM
SMILES: COC(=O)[C@H](c1ccccc1Cl)N1CCc2sccc2C1 [Clopidogrel]

SMILES: Nc1ccn([C@@H]2O[C@H](CO)[C@@H](O)C2(F)F)c(=O)n1 [Gemcitabine, reference compound]
effect of combination with COTI-2 on proliferation [8]: additive effect
effect of combination with COTI-2 on proliferation [9]: additive effect

SMILES: O=c1cc(N2CCOCC2)oc2c(-c3ccccc3)cccc12 [LY294002, reference compound]
PIP3 detected in the presence of the PI3K-inhibitor [10]: approximately 14 pmol

SMILES: COc1ccc(NC(=S)N=Nc2c(O)[nH]c3c(Cl)cc(Cl)cc23)cc1 [NSC73306]
Mean Over NCI/DTP 60 cell line panel (LogGI50) [11]: −4.9

SMILES: Oc1[nH]c2ccccc2c1N=NC(=S)N1CCCCCC1 [NSC668496]
Mean Over NCI/DTP 60 cell line panel (LogGI50) [11]: −6.1

SMILES: C=CCNC(=S)N=Nc1c(O)n(CN2CCOCC2)c2ccc([N+](=O)[O-])cc12 [NSC716768]
Mean Over NCI/DTP 60 cell line panel (LogGI50) [11]: −4.7

IC50 [12]: 9900 nM
SMILES: CO[C@H]1C[C@@H]2CC[C@@H](C)[C@@](O)(O2)C(=O)C(=O)N2CCCC[C@H]2C(=O)O[C@H]([C@H](C)C[C@@H]2CC[C@@H](O)[C@H](OC)C2)CC(=O)[C@H](C)/C=C(\C)[C@@H](O)[C@@H](OC)C(=O)[C@H](C)C[C@H](C)/C=C/C=C/C=C/1C [Rapamycin, rapamycin]

SMILES: C#Cc1cccc(Nc2ncnc3cc(OCCOC)c(OCCOC)cc23)c1 [Tarceva®, erlotinib]
highest concentration that did not significantly affect growth ([13]; COLO 205): 10 µM
IC50 ([13]; 96 h, read-out: concentration to reduce growth by 50% (IC50), COLO-205, 4 day assessment): > 10000 nM
IC50 ([13]; COLO-205, Colon, KRAS - WT, read-out: Mean IC50, single agent): > 10000 nM
IC50 [14]: 5100 nM
IC50 [15]: 20 nM
IC50 [16]: > 100000 nM
IC50 ([17]; SW-620, 96 h, read-out: concentration to reduce growth by 50% (IC50), SW620, 4 day assessment): > 10000 nM
IC50 ([17]; SW-620, SW620, Colon, KRAS - MUT, read-out: Mean IC50, single agent): > 10000 nM
highest concentration that did not significantly affect growth ([17]; SW620): 5 µM
survival of treated animals to study conclusion ([5]; 31 days): died before study conclusion

SMILES: CC(=O)O[C@@]12CO[C@@H]1C[C@H](O)[C@@]1(C)C(=O)[C@H](O)C3=C(C)[C@@H](OC(=O)[C@H](O)[C@@H](NC(=O)OC(C)(C)C)c4ccccc4)C[C@@](O)([C@@H](OC(=O)c4ccccc4)[C@H]21)C3(C)C [Taxotere®, docetaxel, reference compound]
emerging resistance: ratio of IC50 to IC50 of parental generation [3]: significant increases in IC50
emerging resistance: ratio of IC50 to IC50 of parental generation [4]: significant increases in IC50
average number of tumors per injection site [5]: 0.48
mean tumor volume [5]: 183 mm^3

IC50 [12]: 3600 nM
SMILES: CO[C@H]1C[C@@H]2CC[C@@H](C)[C@@](O)(O2)C(=O)C(=O)N2CCCC[C@H]2C(=O)O[C@H]([C@H](C)C[C@@H]2CC[C@@H](OC(=O)C(C)(CO)CO)[C@H](OC)C2)CC(=O)[C@H](C)/C=C(\C)[C@@H](O)[C@@H](OC)C(=O)[C@H](C)C[C@H](C)/C=C/C=C/C=C/1C [Temsirolimus, temsirolimus]

SMILES: CCC1=C[C@@H]2CN(C1)Cc1c([nH]c3ccccc13)[C@@](C(=O)OC)(c1cc3c(cc1OC)N(C)[C@H]1[C@@](O)(C(=O)OC)[C@H](OC(C)=O)[C@]4(CC)C=CCN5CC[C@]31[C@@H]54)C2 [Vinorelbine, reference compound]
effect of combination with COTI-2 on proliferation [8]: additive effect
effect of combination with COTI-2 on proliferation [9]: additive effect
